One test concerns MCF-7. The test can be described thus: In vitro tumor cell proliferation, MCF-7. The following applies: read-out: In vitro Tumor Cell Proliferation (IC50, μM) Breast MCF-7. It is filed as cell-based, human. As to the method:
(§1) The proliferation of tumor cells was measured using a sulforhodamine B assay as described in Skehan, P., et al., J. Natl. Cancer Inst. […] Tumor cells were harvested with trypsin-EDTA, cells that excluded trypan blue were counted, added to 96-well plates and incubated overnight at 37° C. Drug was added to the wells following dilution in culture medium. Three days later, the medium was removed and replenished with medium containing fresh drug and incubated an additional 4 days. The cells were then fixed with 0.1 ml 10% trichloroacetic acid for 60 min at 4° C. The plates were rinsed five times with tap water, air-dried and stained for 30 min with 0.4% sulforhodamine B in 1% acetic acid and air-dried.
(§2) Alternatively, the CyQUANT cell proliferation assay was used to quantify tumor cell proliferation. Tumor cells were harvested with trypsin-EDTA, cells that excluded trypan blue were counted, added to 96-well plates and incubated overnight at 37° C. Drug was added to the wells following dilution in culture medium. Three days later the medium was removed and the plates frozen at −80° C. for at least 30 minutes.
MCF7 is a human breast adenocarcinoma, hormone-dependent (HTB 22);

The subject of a further test is A549. Put plainly: In vitro tumor cell proliferation, A549. The following applies: read-out: In vitro Tumor Cell Proliferation (IC50, μM) Lung A549. It is filed as cell-based, human. In outline:
(§3)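 SRB read-out: 3-day drug exposure, medium and drug renewed, 4 further days, TCA fixation at 4° C, 0.4% SRB stain. CyQUANT alternative: 3-day drug exposure, then plates frozen at −80° C ≥30 min. Cells plated overnight at 37° C before dosing.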

The target of another test is T1, cdk2/cyclin E (Homo sapiens, UniProt P24941).
T1 construct: made in house; host or cells: insect cells (baculovirus co-infection)
Put plainly: Cyclin-Dependent Kinase 2 Assay (cdk-2 inhibition). It is filed as biochemical. The following applies: GST-Rb substrate, 30 min at 30° C. The method in brief: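 GST-Rb bound to glutathione-Sepharose beads (0.5 μg/well) as substrate in 50 mM HEPES pH 7.5, 10 mM MgCl2, 1 mM EGTA. Recombinant cdk2/cyclin E at 0.1 μg per 100 μl, 30 min at 30 °C. Reaction stopped by filtration, TNEN washes, scintillation counting.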

The test system of another test is HCT-15. Put plainly: In vitro tumor cell proliferation, HCT-15. It is filed as cell-based, human. The following applies: read-out: In vitro Tumor Cell Proliferation (IC50, μM) Colon HCT-15. On the procedure: as §1, §2
The next test addresses T2, cdk4/cyclin D1 (Homo sapiens, UniProt P11802).
T2 construct: made in house; host or cells: Sf9 insect cells (Bac-to-Bac baculovirus, pFastBac)
The test can be described thus: Cyclin-dependent kinase 4 Assay. It is filed as biochemical. The following applies: cdk4/cyclin D1, GST-Rb substrate, 10 μM ATP, 30 min at 37° C.; read-out: CDK4 Inhibition IC50. In outline:
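Insect-cell lysate of coexpressed human cdk4/cyclin D1 (0.1 μg) phosphorylated bead-bound GST-Rb (0.5 μg) in 50 mM HEPES pH 7.5, 10 mM MgCl2, 1 mM EGTA for 30 min at 37 °C. Filters were washed with TNEN and scintillation-counted; IC50 values derived.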

Another test has as its system HT-29. Put plainly: In vitro tumor cell proliferation, HT-29. It is filed as cell-based, human. The following applies: read-out: In vitro Tumor Cell Proliferation (IC50, μM) Colon HT-29 (converted). The method in brief:
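HT-29 human colon adenocarcinoma cells plated overnight at 37° C., then exposed to drug for 3 days, medium with fresh drug replaced for a further 4 days. Cells fixed with 10% TCA and stained with 0.4% sulforhodamine B; alternatively, CyQUANT read after 3 days of drug exposure.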

The test system of a further test is PC-3. The test can be described thus: In vitro tumor cell proliferation, PC-3. It is filed as cell-based, human. The following applies: read-out: In vitro Tumor Cell Proliferation (IC50, μM) Prostate PC-3. In outline: as §3
Another test has as its system DMS-114. Put plainly: In vitro tumor cell proliferation, DMS-114. It is filed as cell-based, human. The following applies: read-out: In vitro Tumor Cell Proliferation (IC50, μM) Lung DMS-114. In outline:
as §3

In the next test the test system is DU 145. Put plainly: In vitro tumor cell proliferation, DU 145. It is filed as cell-based, human. The following applies: read-out: In vitro Tumor Cell Proliferation (IC50, μM) Prostate DUI45. The method in brief:
as §3

The next test deals with MDA-MB-231. The test can be described thus: In vitro tumor cell proliferation, MDA-MB-231. It is filed as cell-based, human. The following applies: read-out: In vitro Tumor Cell Proliferation (IC50, μM) Breast MDA-MB-231. The method in brief:
as §3

The mark [1] stands for this setting: Homo sapiens, MCF7, values without *.
The mark [2] stands for this setting: values without *, dihydrochloride.
Setting [3] is: Homo sapiens, A549, values without *.
[4] abbreviates: Homo sapiens, HCT-15, values without *.
[5] abbreviates: Homo sapiens, HT-29, values without *.
Setting [6] is: Homo sapiens, PC-3, values without *.
[7] abbreviates: Homo sapiens, DMS-114, values without *.
[8] abbreviates: Homo sapiens, DU-145, values without *.
[9] abbreviates: Homo sapiens, MDA-MB-231, values without *.

“And” between values parts separate entries of the source, which are not always exact repeats. Equal entries are not always repeated. Structures can show the parent of a compound that is named as a salt. Where two headings read alike, the source gives them in different places.

T2 sequence (P11802 whole entry): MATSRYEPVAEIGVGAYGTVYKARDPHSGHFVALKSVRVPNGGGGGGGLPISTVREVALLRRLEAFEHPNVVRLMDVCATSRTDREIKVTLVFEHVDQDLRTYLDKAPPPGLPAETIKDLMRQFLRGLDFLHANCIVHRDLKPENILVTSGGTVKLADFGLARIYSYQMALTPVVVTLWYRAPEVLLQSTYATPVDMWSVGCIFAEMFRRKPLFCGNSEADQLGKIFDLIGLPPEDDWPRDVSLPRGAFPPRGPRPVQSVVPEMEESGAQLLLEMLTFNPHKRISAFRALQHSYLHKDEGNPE
T2 sequence (P24385 whole entry partner): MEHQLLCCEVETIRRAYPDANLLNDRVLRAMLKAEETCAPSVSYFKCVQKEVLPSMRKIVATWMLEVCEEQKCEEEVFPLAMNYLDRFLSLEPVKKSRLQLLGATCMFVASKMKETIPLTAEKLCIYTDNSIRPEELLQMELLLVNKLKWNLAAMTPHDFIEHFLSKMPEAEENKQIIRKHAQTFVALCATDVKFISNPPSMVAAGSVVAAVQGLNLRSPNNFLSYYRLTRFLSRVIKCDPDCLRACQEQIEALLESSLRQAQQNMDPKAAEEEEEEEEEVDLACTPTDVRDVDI

In the case of `CCCCNc1nc(N[C@H]2CC[C@H](N)CC2)nc2c1ncn2C1CCCC1` [Example 3, 2-[Trans-(4-aminocylcohexyl)amino]-6-(butylamino)-9-cyclopentylpurine dihydrochloride], the IC50 in the test on MCF-7 (setting [1]) is 0.59 µM; in the test with MCF-7 (setting [2]), 0.81 µM; in the test with A549 (setting [3]) it was 0.6 µM; in the test with A549 (setting [2]), 0.63 µM; at cdk2/cyclin E, 33 nM and 17 nM; in the test with HCT-15 (setting [4]) it was 3.9 µM. Besides, the IC50 was 3.6 µM in the test on HCT-15 (setting [2]); 390 nM and 660 nM on cdk4/cyclin D1; 0.92 µM in the test on HT-29 (setting [5]); 1.5 µM in the test with HT-29 (setting [2]); 0.37 µM with PC-3 (setting [6]); 0.49 µM with DMS-114 (setting [7]). Also, the IC50 in the test on DMS-114 (setting [2]) was 0.73 µM; in the test on DU 145 (setting [8]), 0.54 µM; in the test with DU 145 (setting [2]), 0.6 µM; in the test with MDA-MB-231 (setting [9]) it was 0.95 µM; in the test with MDA-MB-231 (setting [2]) it was 1.2 µM.

With `N[C@H]1CC[C@H](Nc2nc(NCc3ccc(Cl)c(Cl)c3)c3ncn(C4CCCC4)c3n2)CC1` [Example 10, 2-[Trans-(4-aminocyclohexyl)amino]-6-[(3,4-dichlorobenzyl)amino]-9-cyclopentylpurine dihydrochloride], the IC50 stood at 1.1 µM with MCF-7 (setting [1]); 1.8 µM in the test with MCF-7 (setting [2]); 1.7 µM in the test with A549 (setting [3]); 0.98 µM with A549 (setting [2]); 140 nM on cdk2/cyclin E; 1.9 µM with HCT-15 (setting [4]). Further, the IC50 at cdk4/cyclin D1 was 190 nM and 300 nM; with HT-29 (setting [5]), 1.6 µM; with PC-3 (setting [6]) it was 0.97 µM; in the test with PC-3 (setting [2]) it was 0.79 µM; in the test on DMS-114 (setting [7]) it was 1.5 µM; in the test with DU 145 (setting [8]), 0.97 µM. Besides, the values for the IC50 in the test on DU 145 (setting [2]), in the test on MDA-MB-231 (setting [9]) and with MDA-MB-231 (setting [2]) were 1.8 µM, 1.2 µM and 1.7 µM, respectively.

`C[C@@H](Nc1nc(NC2CCC(N)CC2)nc2c1ncn2C1CCCC1)c1ccccc1` (stereo partly drawn) [Example 16, (R)-2-[Trans-(4-aminocyclohexyl)amino]-6-[(α-methylbenzylamino]-9-cyclopentylpurinedihydrochloride]: the IC50 in the test with MCF-7 (setting [1]) worked out at 4.1 µM; in the test with MCF-7 (setting [2]), 2.5 µM; in the test with A549 (setting [3]), 6.4 µM; in the test on A549 (setting [2]), 5.8 µM; against cdk2/cyclin E it was 720 nM; in the test with HCT-15 (setting [4]), 9.4 µM. The IC50 was 7.8 µM with HCT-15 (setting [2]); 11000 nM and 6700 nM on cdk4/cyclin D1; 6.3 µM in the test on HT-29 (setting [5]); 5.1 µM in the test on HT-29 (setting [2]); 5 µM in the test on PC-3 (setting [6]); 2.8 µM in the test with PC-3 (setting [2]). Also, the IC50 came to 7.4 µM in the test on DMS-114 (setting [7]); 5.1 µM in the test with DMS-114 (setting [2]); 6.2 µM with DU 145 (setting [8]); 5 µM in the test on DU 145 (setting [2]); 5.9 µM with MDA-MB-231 (setting [9]); 4.4 µM in the test with MDA-MB-231 (setting [2]).

As for `N[C@H]1CC[C@H](Nc2nc(NCCCc3ccccc3)c3ncn(C4CCCC4)c3n2)CC1` [Example 24, 2-[Trans-(4-aminocyclohexyl)amino]-6-[3-(phenyl)propylamino]-9-cyclopentylpurine dihydrochloride], the IC50 in the test on MCF-7 (Homo sapiens, MCF7, values marked * (mark not explained)) came out at 0.42 µM; in the test with MCF-7 (setting [1]), 0.34 µM; in the test with MCF-7 (setting [2]), 0.47 µM; with A549 (Homo sapiens, A549, values marked * (mark not explained)), 0.11 µM; in the test on A549 (setting [3]), 0.15 µM; at cdk2/cyclin E, 130 nM. The IC50 with HCT-15 (Homo sapiens, HCT-15, values marked * (mark not explained)) is 0.99 µM; in the test with HCT-15 (setting [4]), 1.4 µM; with HCT-15 (setting [2]) it was 1 µM; at cdk4/cyclin D1 it was 570 nM and 900 nM; in the test with HT-29 (Homo sapiens, HT-29, values marked * (mark not explained)), 0.19 µM; with HT-29 (setting [5]), 0.16 µM. Further, the IC50 was 0.17 µM and 0.28 µM in the test on HT-29 (setting [2]); 0.2 µM in the test with PC-3 (Homo sapiens, PC-3, values marked * (mark not explained)); 0.13 µM in the test on PC-3 (setting [6]); 0.23 µM in the test with PC-3 (setting [2]); 0.07 µM with DMS-114 (Homo sapiens, DMS-114, values marked * (mark not explained)); 0.14 µM in the test on DMS-114 (setting [7]). The IC50 in the test on DMS-114 (setting [2]) is 0.13 µM; in the test with DU 145 (Homo sapiens, DU-145, values marked * (mark not explained)), 0.54 µM; in the test with DU 145 (setting [8]) it was 0.39 µM; in the test on DU 145 (setting [2]), 0.38 µM and 0.51 µM; in the test on MDA-MB-231 (Homo sapiens, MDA-MB-231, values marked * (mark not explained)) it was 0.24 µM.

With `CC(C)CCNc1nc(N[C@H]2CC[C@H](N)CC2)nc2c1ncn2C1CCCC1` [Example 36, 2-[Trans-(4-aminocyclohexyl)amino]-6-[(3-methylbutyl)amino]-9-cyclopentylpurine dihydrochloride], the IC50 in the test with MCF-7 (setting [1]) came to 1.1 µM; in the test with MCF-7 (setting [2]) it was 1.3 µM; in the test on A549 (setting [3]), 0.8 µM; with A549 (setting [2]), 0.94 µM; on cdk2/cyclin E, 120 nM; with HCT-15 (setting [4]) it was 3.1 µM. For the same compound, the IC50 is 3.3 µM in the test on HCT-15 (setting [2]); 1100 nM and 600 nM at cdk4/cyclin D1; 1.5 µM in the test on HT-29 (setting [5]); 1.9 µM in the test with HT-29 (setting [2]); 0.68 µM in the test with PC-3 (setting [6]); 0.88 µM in the test on DMS-114 (setting [7]). Moreover, the IC50 in the test with DMS-114 (setting [2]) came out at 0.91 µM; in the test with DU 145 (setting [8]) it was 0.89 µM; with DU 145 (setting [2]), 1.1 µM; in the test on MDA-MB-231 (setting [9]), 1.4 µM; in the test on MDA-MB-231 (setting [2]), 2 µM.

For `N[C@H]1CC[C@H](Nc2nc(NCCc3ccccc3)c3ncn(C4CCCC4)c3n2)CC1` [Example 43, 2-[Trans-(4-aminocyclohexyl)amino-6-[2-(phenyl)ethylamino]-9-cyclopentylpurinedihydrochloride], the IC50 with MCF-7 (setting [1]) was 1.2 µM; in the test on MCF-7 (setting [2]), 1.6 µM; in the test on A549 (setting [3]), 1.1 µM; in the test on A549 (setting [2]), 1 µM; against cdk2/cyclin E it was 160 nM; with HCT-15 (setting [4]), 3.4 µM. Further, the IC50 with HCT-15 (setting [2]) was 3.2 µM; at cdk4/cyclin D1, 250 nM; with HT-29 (setting [5]), 2.2 µM; with HT-29 (setting [2]), 2.8 µM; with PC-3 (setting [6]) it was 0.89 µM; in the test on PC-3 (setting [2]), 0.92 µM. Also, the IC50 with DMS-114 (setting [7]) was determined as 0.92 µM; with DMS-114 (setting [2]), 1.2 µM; in the test with DU 145 (setting [8]), 1.2 µM; in the test on DU 145 (setting [2]) it was 1.4 µM; with MDA-MB-231 (setting [9]), 2.1 µM; in the test on MDA-MB-231 (setting [2]) it was 2.5 µM.

For the origin of these results see patent US6413974B1, “6,9,-disubstituted 2-[trans-(4-aminocyclohexyl) amino] purines” (Aventis Pharmaceuticals Inc., priority 1998, dated 2002).
